Measured values from PubChem BioAssay AID1361 (SRMLSC, 2008).
Calls of active or inactive are those of the source. No rule for the calls is given here.

Experiment: blockers of mitochondrial fusion, WT vs mutant – cell-based, chemical genetic, wild-type and mutant, confirmation (AID 1361)
Settings: Cell-based mitochondrial fusion phenotype, imaging
[1] = mutant cells, measured here: mutant cell line IC50

Structure (SMILES)	IC50 (WT cells)	IC50 [1]
O=C(c1cc(-c2ccccc2)nc2ccccc12)N1CCCc2ccccc21	13.7 µM	> 25 µM
c1ccc2c(c1)nc(CN1CCOCC1)n1c3ccccc3nc21	> 25 µM (inactive)	> 25 µM
CCC(C)c1ccc(NC(=S)Nc2ccc(OC)cc2C)cc1 (configuration not stated)	18.5 µM	> 25 µM
Cc1ccc(C(C(=O)NCC2CCCO2)N(Cc2ccccc2)C(=O)c2ccc(-c3ccccc3)[nH]2)o1 (configuration not stated)	10.9 µM	> 25 µM
CCCCOP(=O)(OCCCC)C(Nc1ccccc1)c1ccc2c(c1)OCO2 (configuration not stated)	20.3 µM	> 25 µM
C/C(=C\C(=O)c1ccccc1)Nc1cccc(O)c1	> 25 µM (inactive)	> 25 µM
COc1cc(/C=N/N=C(/C(=O)c2ccccc2)c2ccccc2)cc(OC)c1O	16.5 µM	> 25 µM
COCCCn1c(SCC(=O)NC(C)(C)C)nnc1-c1ccccc1	> 25 µM (inactive)	> 25 µM
Cc1ccc(C2CN(C)C3(C(=O)Nc4ccccc43)C23COc2ccccc2C3=O)cc1 (configuration not stated)	11 µM	23.7 µM
CCn1cc(C(=O)NCCc2ccccc2)c(=O)c2cc(F)c(N3CCN(C)CC3)cc21	> 25 µM (inactive)	> 25 µM
Cn1c(=O)n(C)c2cc([N+](=O)[O-])c(N3CCN(S(=O)(=O)c4ccc(C(C)(C)C)cc4)CC3)cc21	5.99 µM	> 25 µM
CC1CCN(C(=O)/C=C/c2ccc(C(C)(C)C)cc2)CC1	> 25 µM (inactive)	> 25 µM
Cc1nc2c(ccc3nc(NC(=O)Cc4ccccc4)sc32)s1	12.4 µM	> 25 µM
COc1ccc(-n2ncc3c(NCc4ccco4)ncnc32)cc1	> 25 µM (inactive)	> 25 µM
O=C(CSc1nnc(CCc2ccccc2)n1-c1ccc(Cl)cc1)c1ccccc1	17.2 µM	> 25 µM
CCOC(=O)c1cnc(-n2nc(C)cc2C)nc1NNc1cc(C)nc(-c2ccccc2)n1	16.3 µM	> 25 µM
CCCCc1ccc(NC(=S)Nc2ccc(Cl)c(S(=O)(=O)N(C)C)c2)cc1	9.48 µM	> 25 µM
Cc1ccc(Nc2ccc(C(=O)O)cc2N)cc1	> 25 µM (inactive)	> 25 µM
Cc1ccc(C2=CC(C)(c3ccc(C)cc3)Nc3nc(C(F)(F)F)nn32)cc1 (configuration not stated)	7.63 µM	> 25 µM
CS(=O)(=O)c1nc2ccccc2n1Cc1ccccc1	> 25 µM (inactive)	> 25 µM
Cc1cccc(COCC(CC(C)C)N2CCN(C(=O)c3ccc(C(C)(C)C)cc3)CCC2=O)c1 (configuration not stated)	14.7 µM	> 25 µM

Structure (SMILES)	IC50 (WT cells)	IC50 [1]
COc1ccc(-c2cc3nc(C)cc(N4CC(C)CC(C)C4)n3n2)cc1 (configuration not stated)	17.8 µM	19.4 µM
CCOC(=O)C1=C(Nc2ccccc2)CC(C)(O)C(C(=O)OCC)C1c1ccc(Cl)cc1 (configuration not stated)	15.6 µM	> 25 µM
Cc1cccc(-n2c(-c3csc4ccccc34)n[nH]c2=S)c1	> 25 µM (inactive)	> 25 µM
Cc1cc(C)c2nc(C(F)(F)F)nc(N3CC(C)OC(C)C3)c2c1 (configuration not stated)	> 25 µM (inactive)	> 25 µM
COc1ccccc1N(CC(O)COc1c(C)cc(C)cc1C)S(=O)(=O)c1ccccc1 (configuration not stated)	16.1 µM	> 25 µM
O=C(c1ccccn1)N1N=C2/C(=C/c3ccc(F)cc3)CCCC2C1c1ccc(F)cc1 (configuration not stated)	16.1 µM	> 25 µM
NC(=S)n1[nH]c(-c2ccc([N+](=O)[O-])cc2)c(N=Nc2ccc(Cl)cc2)c1=O	8.34 µM	> 25 µM
COc1nc(SC)nc(Cl)c1Cc1ccc(OC(C)C)cc1	24.1 µM	> 25 µM
COC(=O)C1C(=O)NCC1c1ccccc1 (configuration not stated)	> 25 µM (inactive)	> 25 µM
COc1ccc2ccc3c(c2c1)N=CC1(O3)N(C)c2ccccc2C1(C)C (configuration not stated)	6.02 µM	> 25 µM
CC(C)(C)c1ccc(NC(=O)c2ccccc2)c([N+](=O)[O-])c1	24.9 µM (inactive)	> 25 µM
C=CCOc1c(Br)cc(/C=N/Nc2ccc(C(=O)O)cc2)cc1OCC	22.1 µM	> 25 µM
Cc1ccc(C)c(N2CCN(C(=O)C3CCCCN3S(=O)(=O)c3ccc(F)cc3)CC2)c1 (configuration not stated)	18.3 µM	> 25 µM
O=c1oc(Nc2cccc(F)c2)nc2ccccc12	> 25 µM (inactive)	> 25 µM
COc1ccc(-c2noc(-c3ccccc3-c3ccccc3)n2)cc1OC	> 25 µM (inactive)	> 25 µM
O=C(N/N=C/c1c(Cl)cccc1Cl)c1n[nH]c2c1CCCC2	> 25 µM (inactive)	> 25 µM
COCCn1c(SCc2cc(C(C)=O)ccc2OC)nc2cc(Cl)ccc2c1=O	8.09 µM	> 25 µM
Cc1ccc(C(NC(=O)NC(C)c2ccccc2)C(Cl)(Cl)Cl)cc1F (configuration not stated)	10.9 µM	> 25 µM
Cc1ccccc1COC(=O)c1nn(-c2ccccc2)nc1N	> 25 µM (inactive)	> 25 µM
Cn1c(=O)cc(OCCCC(=O)N2CCN(c3ccccc3)CC2)c2ccccc21	> 25 µM (inactive)	> 25 µM
COC(=O)c1c(NC(=O)CN2CCC3(O)CCCCC3C2c2ccc(F)cc2)sc(C)c1C (configuration not stated)	14.4 µM	> 25 µM

Structure (SMILES)	IC50 (WT cells)	IC50 [1]
Cc1nn(-c2cc(C)c3ccccc3n2)c2c1C1C(C2)C1(C)C (configuration not stated)	> 25 µM (inactive)	> 25 µM
CCOc1ccc(NS(=O)(=O)c2cnc(Cl)c(Cl)c2)cc1	20.5 µM	> 25 µM
Cc1csc(NC(=O)c2c(O)c3c(n(CC(C)C)c2=O)CCCC3)n1	14.7 µM	> 25 µM
CC(=O)c1ccc(-n2nnnc2SCC(=O)Nc2cccc(NC(=O)c3ccco3)c2)cc1	> 25 µM (inactive)	> 25 µM
O=C(CS(=O)(=O)Cc1ccccc1)Nc1cccnc1	> 25 µM (inactive)	> 25 µM
O=C(c1cnc(-c2ccc(Cl)cc2)s1)c1ccc(Cl)cc1Cl	14.6 µM	> 25 µM
CCCCc1nc2ccccc2c(=O)n1-c1ccc(Cl)cc1[N+](=O)[O-]	> 25 µM (inactive)	> 25 µM
CC1CCN(C(C)C(=O)Nc2ccccc2-c2ccccc2)CC1 (configuration not stated)	> 25 µM (inactive)	> 25 µM
Cc1cccc(NC(=S)N=Nc2c(O)[nH]c3ccccc23)c1	> 25 µM (inactive)	> 25 µM
Cc1cccc2sc(NC(=O)c3ccc(NS(=O)(=O)c4cccs4)cc3)nc12	> 25 µM (inactive)	> 25 µM
O=C(C1=C[C@H](c2csc3ccccc23)C[C@H](OCc2ccc(CO)cc2)O1)N1CCN(Cc2ccc3c(c2)OCO3)CC1	2.16 µM	10.5 µM
COc1ccc(S(=O)(=O)N2CCCCCC2)cc1C(=O)OCc1c(C)noc1C	> 25 µM (inactive)	> 25 µM
CC(C)CCNC(=O)CCCOc1cc(=O)n(C)c2ccccc12	> 25 µM (inactive)	> 25 µM
CCc1nn(C(C)C(=O)NCCN2CCN(c3cccc(C)c3C)CC2)c(=O)c2cc3occc3n12 (configuration not stated)	> 25 µM (inactive)	> 25 µM
CC1(C)C=Cc2c(c3c(c4c(=O)c(-c5ccc(O)cc5)coc24)OC(C)(C)CC3)O1	14 µM	24.4 µM
Cc1cccc(NC(=O)c2ccc(N3CCCCC3)c([N+](=O)[O-])c2)n1	> 25 µM (inactive)	> 25 µM
CCOC(=O)c1c(-n2c(C)cc(C=C3C(=O)NC(=S)NC3=O)c2C)sc2c1CCCC2	7.21 µM	> 25 µM
CC#C[C@]1(O)CC[C@H]2[C@@H]3CCC4=CC(=O)CCC4=C3[C@@H](c3ccc(N(C)C)cc3)C[C@@]21C	20.9 µM	> 25 µM
CCOc1ccc(OCC)c(S(=O)(=O)NCCOC23CC4CC(CC(C4)C2)C3)c1	> 25 µM (inactive)	> 25 µM
c1ccc(-c2cn3c(n2)CCc2ccc4cccnc4c2-3)cc1	23.7 µM (inactive)	21.3 µM
O=C(NCc1ccccc1)c1ccc(-c2ccccc2C(F)(F)F)o1	> 25 µM (inactive)	> 25 µM

Structure (SMILES)	IC50 (WT cells)	IC50 [1]
N#C/C(=C\c1cccc(NC(=O)c2ccccc2Cl)c1)C(=O)NCCc1ccccc1	10.9 µM	> 25 µM
O=C(CCn1nc(-c2ccccc2)c2ccccc2c1=O)NCC1CCCO1 (configuration not stated)	> 25 µM (inactive)	> 25 µM
CN1CC(=O)Nc2ccc(F)cc2C1=O	> 25 µM (inactive)	> 25 µM
CCC(C)(C)c1ccc2c(c1)C(=O)c1ccccc1C2=O	18.6 µM	> 25 µM
Cc1cc(Nc2ccccc2)c2c([N+](=O)[O-])cc(C)c(C)c2n1	> 25 µM (inactive)	> 25 µM
CCc1ccccc1NC(=O)/C(=C/c1ccccc1)c1ccccc1	17.4 µM	> 25 µM
CC(C)C(=O)Nc1ccc(C(=O)NNC(=O)CCCOc2ccc(Cl)cc2Cl)cc1	> 25 µM (inactive)	> 25 µM
O=C1CC(SCc2nc3ccccc3[nH]2)C(=O)N1c1cccc(F)c1 (configuration not stated)	> 25 µM (inactive)	> 25 µM
CCS(=O)(=O)Nc1ccc(-c2cc(-c3ccccc3)c3cc(C)ccc3n2)cc1	7.26 µM	> 25 µM
C/C(CCN1CCc2nc(-c3ccccc3)c(-c3ccccc3)cc2C1)=N\OC[C@@H](C)[C@H](OCc1ccccc1)C(C)C	> 25 µM (inactive)	> 25 µM
O=Nc1c(O)n(Cc2cccc(Cl)c2)c2ccccc12	> 25 µM (inactive)	> 25 µM
Cc1cc(=O)n2[nH]c(-c3ccc(F)cc3)cc2n1	> 25 µM (inactive)	> 25 µM
Cc1ccccc1NC1=C(Cl)C(=O)N(C2CCCCC2)C1=O	19.1 µM	> 25 µM
COc1cccc(OC)c1OCCCCN1CCCC1	> 25 µM (inactive)	> 25 µM
CCOC(=O)c1sc2nc(CSc3ccccc3)nc(N3CCC(C(N)=O)CC3)c2c1C	> 25 µM (inactive)	> 25 µM
Cc1ccc(C(c2nnnn2CCc2ccccc2)N2CCC(C)CC2)cc1 (configuration not stated)	> 25 µM (inactive)	> 25 µM
Cc1nc(N2CCCCC2)c2c(C)c(C(=O)Nc3cccc(C(F)(F)F)c3)sc2n1	9.62 µM	> 25 µM
COCCN(C(=S)Nc1cccc(C)c1)C(C)c1cccs1 (configuration not stated)	23.7 µM	> 25 µM
